Laboratory results taken from patent US8394952B2 (Vertex Pharmaceuticals Incorporated, priority 2006, dated 2013).

Each molecule was assayed against Plk1 (Homo sapiens, UniProt P53350) (assay: biochemical).
Chain of Plk1 (P53350 20-338): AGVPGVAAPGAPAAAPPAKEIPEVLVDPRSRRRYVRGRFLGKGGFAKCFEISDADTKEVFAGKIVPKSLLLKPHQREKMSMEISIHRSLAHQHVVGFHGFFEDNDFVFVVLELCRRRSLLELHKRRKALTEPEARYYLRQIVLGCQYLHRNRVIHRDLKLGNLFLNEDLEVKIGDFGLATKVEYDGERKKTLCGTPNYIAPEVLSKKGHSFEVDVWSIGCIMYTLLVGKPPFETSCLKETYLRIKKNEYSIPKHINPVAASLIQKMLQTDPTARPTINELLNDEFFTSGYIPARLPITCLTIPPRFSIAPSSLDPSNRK

Ki, < 10 nM:
COc1cc(C(=O)NC[C@@H]2CC[C@@H](O)C2)ccc1Nc1ncc2c(n1)N(C1CCCC1)CC(C)(C)C(=O)N2C [Compound I-259, 4-(9-cyclopentyl-5,7,7-trimethyl-6-oxo-6,7,8,9-tetrahydro-5H-pyrimido[4,5-b][1,4]diazepin-2-ylamino)-N-((1R,3R)-3-(hydroxycyclopentyl)methyl)-3-methoxybenzamide]
COc1cc(C(=O)N[C@@H]2CC[C@@H](CO)C2)ccc1Nc1ncc2c(n1)N(C1CCCC1)CC(C)(C)C(=O)N2C [Compound I-260, 4-(9-cyclopentyl-5,7,7-trimethyl-6-oxo-6,7,8,9-tetrahydro-5H-pyrimido[4,5-b][1,4]diazepin-2-ylamino)-N-((1R,3R)-3-(hydroxymethyl)cyclopentyl)-3-methoxybenzamide]
COc1ccc(NC(=O)c2ccc(Nc3ncc4c(n3)N(C3CCCC3)CC(C)(C)C(=O)N4C)c(OC)c2)cc1 [Compound I-261, 4-(9-cyclopentyl-5,7,7-trimethyl-6-oxo-6,7,8,9-tetrahydro-5H-pyrimido[4,5-b][1,4]diazepin-2-ylamino)-3-methoxy-N-(4-methoxyphenyl)benzamide]
COc1cc(C(=O)NCCCO)ccc1Nc1ncc2c(n1)N(C1CCCC1)CC1(CC1)C(=O)N2C [Compound I-262, 4-(9′-cyclopentyl-5′-methyl-6′-oxo-5′,6′,8′,9′-tetrahydrospiro[cyclopropane-1,7′-pyrimido[4,5-b][1,4]diazepine]-2′-ylamino)-N-(3-hydroxypropyl)-3-methoxybenzamide]
COc1cc(C(=O)NC(C)C)ccc1Nc1ncc2c(n1)N(C1CCCC1)CC1(CC1)C(=O)N2C [Compound I-263, 4-(9′-cyclopentyl-5′-methyl-6′-oxo-5′,6′,8′,9′-tetrahydrospiro[cyclopropane-1,7′-pyrimido[4,5-b][1,4]diazepine]-2′-ylamino)-N-isopropyl-3-methoxybenzamide]
COc1cc(C(=O)NCCO)ccc1Nc1ncc2c(n1)N(C1CCCC1)CC(C)(C)C(=O)N2C [Compound I-264, 4-(9-cyclopentyl-5,7,7-trimethyl-6-oxo-6,7,8,9-tetrahydro-5H-pyrimido[4,5-b][1,4]diazepin-2-ylamino)-N-(2-hydroxyethyl)-3-methoxybenzamide]
COc1cc(C(=O)N[C@@H](C)CO)ccc1Nc1ncc2c(n1)N(C1CCCC1)CC(C)(C)C(=O)N2C [Compound I-265]
COc1cc(C(=O)NC2(CO)CC2)ccc1Nc1ncc2c(n1)N(C1CCCC1)CC(C)(C)C(=O)N2C [Compound I-266]
COc1cc(C(=O)N[C@H]2CC[C@@H](F)CC2)ccc1Nc1ncc2c(n1)N(C1CCCC1)CC(C)(C)C(=O)N2C [Compound I-267, 4-(9-cyclopentyl-5,7,7-trimethyl-6-oxo-6,7,8,9-tetrahydro-5H-pyrimido[4,5-b][1,4]diazepin-2-ylamino)-N-((1S,4S)-4-fluorocylohexyl)-3-methoxybenzamide]
COc1cc(C(=O)N[C@@H]2CCCC[C@H]2O)ccc1Nc1ncc2c(n1)N(C1CCCC1)CC(C)(C)C(=O)N2C [Compound I-268, 4-(9-cyclopentyl-5,7,7-trimethyl-6-oxo-6,7,8,9-tetrahydro-5H-pyrimido[4,5-b][1,4]diazepin-2-ylamino)-N-((1R,2R)-2-hydroxycyclohexyl)-3-methoxybenzamide]
COc1cc(C(=O)NC2CC(F)(F)C2)ccc1Nc1ncc2c(n1)N(C1CCCC1)CC1(CC1)C(=O)N2C [Compound I-269, 4-(9′-cyclopentyl-5′-methyl-6′-oxo-5′,6′,8′,9′-tetrahydrospiro[cyclopropane-1,7′-pyrimido[4,5-b][1,4]diazepine]-2′-ylamino)-N-(3,3-difluorocyclobutyl)-3-methoxybenzamide]
